Data from patent US20070238700A1, “N-PHENYL-1,1,1-TRIFLUOROMETHANESULFONAMIDE HYDRAZONE DERIVATIVE COMPOUNDS AND THEIR USAGE IN CONTROLLING PARASITES” (priority 2006, published 2007).
Like-named read-outs stand apart in the source and are kept apart here.

System: Ctenocephalides felis
Procedure: b) Ctenocephalides felis Adulticide Assay: C. felis Single Dose Screen
Mortality of fleas was the primary endpoint in the assay. Fleas were considered dead if they didn't move or were on their sides and unable to walk or right themselves. […] The concentration chosen (1.26 μg/cm^2) was higher than that known to kill 90% of cat fleas (LC90) using the reference compound, permethrin.
The test species was the cat flea (Ctenocephalides felis). The strain used was obtained from external suppliers as pupae and held in the laboratory under testing conditions until the adults had emerged. Fifteen (15) fleas were used in a minimum of four replicates against a single concentration level (approximately 60 fleas). The insects were selected to be in the adult life stage, aged between 3 and 7 days post emergence.
The compounds to be tested were supplied as solids and were prepared in acetone as described below prior to testing. Samples were stored in a refrigerator (5±1° C.) unless otherwise specified.
During the mortality testing, the temperature was maintained at 25±1° C. Humidity was maintained at 75±5%. The base (area=159 mm^2) of a 100 mL glass Erlenmeyer (conical) flask provided the treatment surface. Flasks were pretreated with Coatasil™ glass treatment to maximise bio-availability of test compounds by preventing them from binding to glass the surface. The base of the 100 mL Erlenmeyer flask was treated with 0.5 mL of test sample in acetone and gently swirled. This volume was sufficient to cover the base of the flask. Flasks were left to dry for 24 hours before flea exposure.
Adult cat fleas were placed into a sorting chamber, which allowed fleas to jump into the Erlenmeyer flasks. Fifteen (15) adult cat fleas were collected in each flask. The top of the flasks were then covered in Parafilm™ and small holes were made to allow gas exchange. A 0.5 mL volume of acetone as a solvent control was applied to the base of an Erlenmeyer flask and the testing proceeded in the same manner described above. Cat fleas in the treatment containers were held under testing conditions for 8, 24 and/or 48 hours. Mortality was recorded at 8, 24, 8 and 24, or 24 and 48 hours Pooled 8, 24, 8 and 24, and 24 and 48 hour mortality data were converted to percentages and are summarized by Table 21, below.

SMILES | C. felis Mortality (%) 8 h (8 h, data from laboratory 1) [%] | C. felis Mortality (%) 24 h (24 h, data from laboratory 1) [%] | C. felis Mortality (%) 8 h [%] | C. felis Mortality (%) 24 h [%]
CC(=NN(C)c1ccccc1)c1cc(Cl)ccc1N(COC(=O)C(C)(C)C)S(=O)(=O)C(F)(F)F [Compound 111] | 14 | 32 | – | –
CC(=NN(C)C)c1cc(Cl)ccc1NS(=O)(=O)C(F)(F)F [Compound 113] | 3 | 66 | – | –
CC(=NN(C)c1ccccc1)c1ccccc1NS(=O)(=O)C(F)(F)F [Compound 114, N-[2-[1-(N′-methyl-N′-phenyl)hydrazono]ethyl-phenyl]-trifluoromethanesulfonamide] | – | – | 56 | 86
CC(=NN(C)c1ccccc1)c1cccc(Cl)c1NS(=O)(=O)C(F)(F)F [Compound 115] | 10 | 63 | – | –
CN(N=C(c1cc(Cl)ccc1NS(=O)(=O)C(F)(F)F)C1CCCCC1)c1ccccc1 [Compound 119] | 7 | 14 | – | –
O=S(=O)(Nc1ccc(Cl)cc1C(=NNc1ccc(Cl)cc1)c1ccccc1)C(F)(F)F [Compound 121] | 12 | 41 | – | –
CC(=NNc1ccc(Cl)cc1)c1ccccc1NS(=O)(=O)C(F)(F)F [Compound 122] | 23 | 26 | – | –
CN(C)N=C(c1ccccc1)c1cc(Cl)ccc1NS(=O)(=O)C(F)(F)F [Compound 123, N-[2-[1-dimethylhydrazono-1-phenyl]methyl-4-chlorophenyl]-trifluoromethanesulfonamide] | – | – | 9 | 45
CCC(=NN1CCCC1)c1cc(Cl)ccc1NS(=O)(=O)C(F)(F)F [Compound 128] | 12 | 36 | – | –
C#CCN(c1ccc(Cl)cc1C(C)=NN1CCCCC1)S(=O)(=O)C(F)(F)F [Compound 133, N-[2-[1-(1-piperidyl)imino]ethyl-4-chlorophenyl]-N-propargyltrifluoromethanesulfonamide] | – | – | 5 | 66
CC(=NN1CCCCC1)c1cc(Cl)ccc1N(C)S(=O)(=O)C(F)(F)F [Compound 134] | 7 | 14 | – | –
CCN(c1ccc(Cl)cc1C(C)=NN1CCCCC1)S(=O)(=O)C(F)(F)F [Compound 135, N-[2-[1-(1-piperidyl)imino]ethyl-4-chlorophenyl]-N-ethyl-trifluoromethanesulfonamide] | – | – | 8 | 41
CC(C)=CCN(c1ccc(Cl)cc1C(C)=NN(C)c1ccccc1)S(=O)(=O)C(F)(F)F [Compound 136] | 7 | 13 | – | –
C#CCN(c1ccc(Cl)cc1C(C)=NN(C)c1ccccc1)S(=O)(=O)C(F)(F)F [Compound 137] | 6 | 19 | – | –
CC(=NN(C)C(=O)c1ccccc1)c1cc(Cl)ccc1NS(=O)(=O)C(F)(F)F [Compound 138] | 20 | 66 | – | –
CC(=NN(C)c1cc(Cl)ccc1Cl)c1cc(Cl)ccc1NS(=O)(=O)C(F)(F)F [Compound 141] | 13 | 75 | – | –
CCN(N=C(C)c1cc(Cl)ccc1NS(=O)(=O)C(F)(F)F)c1cc(Cl)ccc1Cl [Compound 142] | 12 | 46 | – | –
CCCN(N=C(C)c1cc(Cl)ccc1NS(=O)(=O)C(F)(F)F)c1cc(Cl)ccc1Cl [Compound 143] | 13 | 53 | – | –
CC(=NN(c1cc(Cl)ccc1Cl)C(C)C)c1cc(Cl)ccc1NS(=O)(=O)C(F)(F)F [Compound 144] | 7 | 42 | – | –
CCOCN(c1ccc(Cl)cc1C(C)=NN1CCCCC1)S(=O)(=O)C(F)(F)F [Compound 145] | 8 | 35 | – | –
COCN(c1ccc(Cl)cc1C(C)=NN1CCCCC1)S(=O)(=O)C(F)(F)F [Compound 146] | 12 | 24 | – | –

SMILES | C. felis Mortality (%) 8 h (8 h, data from laboratory 1) [%] | C. felis Mortality (%) 24 h (24 h, data from laboratory 1) [%] | C. felis Mortality (%) 8 h [%] | C. felis Mortality (%) 24 h [%]
CC(=NNc1ccc(C)cc1)c1cc(Cl)ccc1NS(=O)(=O)C(F)(F)F [Compound 155] | 7 | 28 | – | –
CCOC(=O)N(CCC(C)C)N=C(C)c1cc(Cl)ccc1NS(=O)(=O)C(F)(F)F [Compound 158] | – | – | 5 | 28
CC(=NN1CCCCC1)c1cccc(NS(=O)(=O)C(F)(F)F)c1 [Compound 161] | 7 | 16 | – | –
CC(=NN(C)c1ccccc1)c1cc(NS(=O)(=O)C(F)(F)F)ccc1Cl [Compound 162] | 8 | 58 | – | –
CC(=NN(C)c1ccccc1)c1cccc(NS(=O)(=O)C(F)(F)F)c1 [Compound 163, N-[3-[1-(N′-methyl-N′-phenyl)hydrazono]ethylphenyl]-trifluoromethanesulfonamide] | – | – | 8 | 18
CC(=NN(C)c1ccccc1)c1ccc(NS(=O)(=O)C(F)(F)F)cc1 [Compound 164] | 8 | 72 | – | –
CC(=NNc1ccc(Cl)cc1)c1ccc(NS(=O)(=O)C(F)(F)F)cc1 [Compound 165] | 6 | 7 | – | –
CC(=NN1CCCCC1)c1ccc(NS(=O)(=O)C(F)(F)F)cc1 [Compound 167] | 2 | 5 | – | –
C=CCN(N=C(C)c1cc(Cl)ccc1N(CC=C)S(=O)(=O)C(F)(F)F)c1ccc(Cl)cc1 [Compound 170] | 2 | 24 | – | –
C=CCN(N=C(C)c1cc(Cl)ccc1NS(=O)(=O)C(F)(F)F)c1ccc(Cl)cc1 [Compound 171] | 7 | 54 | – | –
CC(=NN(C)c1ccccc1)c1cc2c(cc1NS(=O)(=O)C(F)(F)F)OCO2 [Compound 172] | 5 | 31 | – | –
C=CCN(N=C(C)c1cc(Cl)ccc1NS(=O)(=O)C(F)(F)F)c1ccccc1 [Compound 173] | 17 | 59 | – | –
CC(=NNS(=O)(=O)c1ccc(C)cc1)c1cc(Cl)ccc1NS(=O)(=O)C(F)(F)F [Compound 174] | 5 | 27 | – | –
C#CCN(N=C(C)c1cc(Cl)ccc1NS(=O)(=O)C(F)(F)F)c1ccccc1 [Compound 175] | 5 | 38 | – | –
CC(=NN1CCCCC1)c1ccccc1NS(=O)(=O)C(F)(F)F [Compound 176] | 7 | 31 | – | –
CC(=NN1CCCCC1)c1ccc(C(F)(F)F)cc1NS(=O)(=O)C(F)(F)F [Compound 177] | 3 | 22 | – | –
CC(=NNc1ccc(F)cc1)c1ccccc1NS(=O)(=O)C(F)(F)F [Compound 178] | 4 | 29 | – | –
CC(=NNc1ccc(Cl)cc1)c1ccc(C(F)(F)F)cc1NS(=O)(=O)C(F)(F)F [Compound 179] | 3 | 25 | – | –
CC(=NNc1ccc(F)cc1)c1ccc(C(F)(F)F)cc1NS(=O)(=O)C(F)(F)F [Compound 180] | 0 | 16 | – | –
CC(=NN1CCCCC1)c1cc2c(cc1NS(=O)(=O)C(F)(F)F)OCO2 [Compound 181] | 7 | 16 | – | –
CCN(N=C(C)c1ccccc1NS(=O)(=O)C(F)(F)F)c1ccc(Cl)cc1 [Compound 182] | 5 | 29 | – | –
